US10562869B2, “Oxadiazole compounds” (REMYND NV, priority 2014, dated 2020)

Columns and labels:
INS-1E cells = experiment: Cytokine-induced caspase-3/7 activation in INS-1E cells (beta cell stress/apoptosis model, Caspase-Glo 3/7); format: cell-based; settings: Rattus norvegicus, cytokine mix (IFN-γ, IL-1β, TNF-α), 24 hours, caspase 3/7 activity, read-out: CYT EC50
Excerpt: The INS-1E cell line, a rat insulinoma cell line, has been characterized extensively. INS-1E cells respond to glucose by secreting insulin and, unlike most other immortalized β-cell lines, they do this in a consistent manner over time. The cells are sensitive to hyperglycemia-, free fatty acid (FFA)-, and cytokine-induced stress. Prolonged stress ultimately leads to induction of apoptotic pathways and, if stress is not counter-acted, to apoptosis. Caspase-3 and -7 play a central role downstream where various apoptotic pathways merge. As such, activation (i.e. cleavage) of these caspases forms a relevant primary read-out to evaluate protective activity of compounds against stress-induced apoptosis.
To evaluate the efficacy of different compounds to prevent induction of apoptosis, an in vitro screen was developed in which INS-1E cells were exposed to a cytokine mix (IFN-γ, 5 ng/ml; IL-1β, 20 pg/ml; TNF-α, 0.25 ng/ml). The degree of induction of apoptosis was evaluated using a substrate for cleaved caspase-3 and -7, i.e. a proluminescent caspase-3/7 DEVD aminoluciferin substrate with a thermostable luciferase (Caspase-Glo® 3/7 assay; Promega, cat. G8092).
On day 0, INS-1E cells were plated in a white-walled 96-well microplate (Greiner, cat. 655098) at 20,000 cells per well in 100 μl complete medium (RPMI containing 11 mM glucose supplemented with 5% FCS, 100 IU/ml penicillin, 100 μg/ml streptomycin, 10 mM HEPES, 1 mM Sodium Pyruvate and 50 μM 2-Mercapto-ethanol). On day 2, 100 μl medium containing cytokines and compound dissolved in DMSO was added to the cells. Wells without cytokines containing DMSO and wells with cytokines and DMSO were included to evaluate the degree of caspase 3/7 activation by the cytokine mix. After 24 hours exposure to cytokines and/or compound, Caspase-Glo® 3/7 reagent was added to the cells and caspase activity was determined by measuring luminescence.
To evaluate compound efficacy, the “toxicity window” was calculated by subtracting caspase activity of wells without stressor from activity of wells with stressor but without compound. The amount of caspase activity in the latter wells was normalized to 1 and used as reference. Subsequently, caspase activity in the wells with stressor and varying concentrations of compound was calculated relative to the wells without compound. Plotting caspase activity vs the log 10 of the concentration of compound permitted calculation of the EC50 values for the compounds which typically lied between 0.0001 and 10 μM. Compounds with an EC50<10 μM were considered active.

M17_3SYN cells = experiment: Paraquat-induced cytotoxicity (LDH) in α-synuclein over-expressing M17_3SYN neuroblastoma cells; format: cell-based, human; settings: Homo sapiens, Neuroblastoma cell, 48 h, toxicity inhibition (LDH) in M17_3SYN cells challenged with 6 mM paraquat, 2 days; read-out: SYN EC50
In short: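 Human BE-M17 neuroblastoma cells stably overexpressing wild-type α-synuclein challenged with paraquat (final 6 mM) for 2 days at 37 °C alongside compounds over a concentration range. Cytotoxicity as LDH released relative to total LDH; EC50 from dose-dependent inhibition curve.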

db/db mice = experiment: In vivo evaluation in db/db mice (type 2 diabetes model); settings: 15 mg/kg IP, vs vehicle
Excerpt: For in vivo evaluation of compound efficacy, male BKS.Cg-+Leprdb/Leprdb/OlaHsd mice (db/db mice—Harlan) were used. The db/db phenotype results from a mutation in the leptin receptor gene, leading to a splice variant (Chen, Charlat et al. 1996; Lee, Proenca et al. 1996). The development of type 2 diabetes in db/db mice is associated with reduced insulin levels due to progressive β-cell failure following an initial period of hypersecretion of insulin. Since these mice develop type 2 diabetes in a manner related to pathology development in humans, and the model is accepted as in vivo model for evaluation of novel anti-diabetic treatments by the Food and Drug Administration (FDA, US), it is a highly relevant model for testing candidate drugs for efficacy.
Compounds were administered intraperitoneal (IP) or oral (PO) at a dose of maximally 50 mg/kg. Mice were subjected to metabolic analysis weekly or bi-weekly. These tests included but were not limited to determination of fasting (5 hrs) and non-fasting blood glucose levels, plasma insulin levels, % glycated hemoglobin (HbA1c) levels, glucose tolerance test and insulin sensitivity test.

SMILES | EC50 (INS-1E cells) | EC50 (M17_3SYN cells) | Plasma insulin levels (db/db mice; after 6 weeks of treatment, FIG. 1C) | weight gain (non-fasted body weight) (db/db mice; FIG. 1A) | Fasted blood glucose levels (db/db mice; FIG. 1B)
CSc1ccc(S(=O)(=O)N2CCN(c3nc(C4(c5ccc(F)cc5)CC4)no3)CC2)cc1 [Cmpd110, 1-{3-[1-(4-Fluoro-phenyl)-cyclopropyl]-[1,2,4]oxadiazol-5-yl}-4-(4-methylsulfanyl-benzenesulfonyl)-piperazine] | 10 nM | 30 nM | significantly higher | increased | significantly lower
CCOc1ccc(S(=O)(=O)N2CCN(c3nc(C4(c5ccccc5)CC4)no3)CC2)cc1 [Cmpd121, 1-(4-Ethoxy-benzenesulfonyl)-4-[3-(1-phenyl-cyclopropyl)-[1,2,4]oxadiazol-5-yl]-piperazine] | 186 nM | 10 nM | – | – | –
O=S(=O)(c1ccc(OC(F)F)cc1)N1CCN(c2nc(C3(c4ccccc4)CC3)no2)CC1 [Cmpd122, 1-(4-Difluoromethoxy-benzenesulfonyl)-4-[3-(1-phenyl-cyclopropyl)-[1,2,4]oxadiazol-5-yl]-piperazine] | 43 nM | 9 nM | – | – | –
CSc1ccc(S(=O)(=O)N2CCN(c3nc(C4(c5ccccc5)CC4)no3)CC2)cc1 [Cmpd126, 1-(4-Methylsulfanyl-benzenesulfonyl)-4-[3-(1-phenyl-cyclopropyl)-[1,2,4]oxadiazol-5-yl]-piperazine] | 28 nM | 7 nM | – | – | –
COc1ccc(S(=O)(=O)N2CCN(c3nc(C4(c5cccc(Cl)c5)CC4)no3)CC2)cc1 [Cmpd134, 1-{3-[1-(3-Chloro-phenyl)-cyclopropyl]-[1,2,4]oxadiazol-5-yl}-4-(4-methoxy-benzenesulfonyl)-piperazine] | 16 nM | 2 nM | – | – | –
CCOc1ccc(S(=O)(=O)N2CCN(c3nc(C4(c5cccc(Cl)c5)CC4)no3)CC2)cc1 [Cmpd135, 1-{3-[1-(3-Chloro-phenyl)-cyclopropyl]-[1,2,4]oxadiazol-5-yl}-4-(4-ethoxy-benzenesulfonyl)-piperazine] | 129 nM | 28 nM | – | – | –
O=S(=O)(c1ccc(OC(F)F)cc1)N1CCN(c2nc(C3(c4cccc(Cl)c4)CC3)no2)CC1 [Cmpd136, 1-{3-[1-(3-Chloro-phenyl)-cyclopropyl]-[1,2,4]oxadiazol-5-yl}-4-(4-difluoromethoxy-benzenesulfonyl)-piperazine] | 24 nM | 8 nM | – | – | –
CSc1ccc(S(=O)(=O)N2CCN(c3nc(C4(c5cccc(Cl)c5)CC4)no3)CC2)cc1 [Cmpd137, 1-{3-[1-(3-Chloro-phenyl)-cyclopropyl]-[1,2,4]oxadiazol-5-yl}-4-(4-methylsulfanyl-benzenesulfonyl)-piperazine] | 9 nM | 7 nM | – | – | –
CSc1ccc(S(=O)(=O)N2CCN(c3nc(C4(c5ccc(Cl)cc5)CC4)no3)CC2)cc1 [Cmpd141, 1-{3-[1-(4-Chloro-phenyl)-cyclopropyl]-[1,2,4]oxadiazol-5-yl}-4-(4-methylsulfanyl-benzenesulfonyl)-piperazine] | 19 nM | 12 nM | – | – | –
CSc1ccc(S(=O)(=O)N2CCN(c3nc(C(F)(F)c4ccc(Cl)cc4)no3)CC2)cc1 [Cmpd145, 1-{3-[(4-Chloro-phenyl)-difluoro-methyl]-[1,2,4]oxadiazol-5-yl}-4-(4-methylsulfanyl-benzenesulfonyl)-piperazine] | 82 nM | 15 nM | – | – | –
COc1ccc(S(=O)(=O)N2CCN(c3nc(C(F)(F)c4ccc(F)cc4)no3)CC2)cc1 [Cmpd146, 1-{3-[Difluoro-(4-fluoro-phenyl)-methyl]-[1,2,4]oxadiazol-5-yl}-4-(4-methoxy-benzenesulfonyl)-piperazine] | 75 nM | 8 nM | – | – | –
CSc1ccc(S(=O)(=O)N2CCN(c3nc(C(F)(F)c4ccc(F)cc4)no3)CC2)cc1 [Cmpd151, 1-{3-[Difluoro-(4-fluoro-phenyl)-methyl]-[1,2,4]oxadiazol-5-yl}-4-(4-methylsulfanyl-benzenesulfonyl)-piperazine] | 41 nM | 13 nM | – | – | –
CSc1ccc(S(=O)(=O)N2CCN(c3nc(C(F)(F)c4ccccc4)no3)CC2)cc1 [Cmpd157, 1-[3-(Difluoro-phenyl-methyl)-[1,2,4]oxadiazol-5-yl]-4-(4-methylsulfanyl-benzenesulfonyl)-piperazine] | 498 nM | 4 nM | – | – | –
CSc1ccc(S(=O)(=O)N2CCN(c3nc(C4C[C@@H]5CC[C@H]4C5)no3)CC2)cc1 (stereo partly drawn) [Cmpd191, 3-((1S,4R)-bicyclo[2.2.1]heptan-2-yl)-5-(4-((4-(methylthio)phenyl)sulfonyl)piperazin-1-yl)-1,2,4-oxadiazole] | 554 nM | 109 nM | – | – | –
COc1ccc(S(=O)(=O)N2CCN(c3nc(C(C)(C)c4ccnc(C)c4)no3)CC2)cc1 [Cmpd195, 5-(4-((4-Methoxyphenyl)sulfonyl)piperazin-1-yl)-3-(2-(2-methylpyridin-4-yl)propan-2-yl)-1,2,4-oxadiazole] | 52 nM | 70 nM | – | – | –
COc1ccc(S(=O)(=O)N2CCN(c3nc(COCC4CC4)no3)CC2)cc1 [Cmpd203, 3-((Cyclopropylmethoxy)methyl)-5-(4-((4-methoxyphenyl)sulfonyl)piperazin-1-yl)-1,2,4-oxadiazole] | 153 nM | 8 nM | – | – | –
COc1ccc(S(=O)(=O)N2CCN(c3nc(COc4ccc(F)cc4)no3)CC2)cc1 [Cmpd206, 3-((4-Fluorophenoxy)methyl)-5-(4-((4-methoxyphenyl)sulfonyl)piperazin-1-yl)-1,2,4-oxadiazole] | 189 nM | 22 nM | – | – | –
COc1ccc(S(=O)(=O)N2CCC3(CC2)CN(c2nc(C4(c5ccc(F)cc5)CC4)no2)C3)cc1 [Cmpd213, 3-(1-(4-Fluorophenyl)cyclopropyl)-5-(7-((4-methoxyphenyl)sulfonyl)-2,7-diazaspiro[3.5]nonan-2-yl)-1,2,4-oxadiazole] | 10 nM | 360 nM | – | – | –
COc1ccc(S(=O)(=O)N2CCC3(CC2)CN(c2nc(CC(F)(F)F)no2)C3)cc1 [Cmpd214, 5-(7-((4-Methoxyphenyl)sulfonyl)-2,7-diazaspiro[3.5]nonan-2-yl)-3-(2,2,2-trifluoroethyl)-1,2,4-oxadiazole] | 55 nM | 164 nM | – | – | –
CSc1ccc(S(=O)(=O)N2CCC3(CC2)CN(c2nc(CC(F)(F)F)no2)C3)cc1 [Cmpd215, 5-(7-((4-(Methylthio)phenyl)sulfonyl)-2,7-diazaspiro[3.5]nonan-2-yl)-3-(2,2,2-trifluoroethyl)-1,2,4-oxadiazole] | 145 nM | 274 nM | – | – | –
